The text below walks through data of patent publication US20150126581A1, “MicroRNAs and Uses Thereof” (The University of Western Australia, priority 2012, published 2015).

Common to all, as to type: cell-based, human
The subject of one data set is DOHH 3′-UTR. Briefly: Dual luciferase reporter gene assay in HeLa cells, DOHH 3′-UTR reporter. The settings on record: 1-2 nM pre-miRNA, 24 h after transfection, compared to miR-NC. The source says:
Synthetic miRNA precursor molecules corresponding to human miR-331-3p (Pre-miR miRNA Precursor Product ID: PM10881), human miR-642-5p (Pre-miR miRNA Precursor Product ID: PM11477) and a negative control miRNA (miR-NC; Pre-miR miRNA Precursor Negative Control #1, Product ID: AM 17110) were obtained from Ambion.
The dual luciferase (firefly and Renilla) reporter miRNA target clone for the DOHH 3′-UTR (catalogue no. HmiT020194-MT01) and the negative control vector (catalogue no. CmiT000001-MT01), both based on the PETZ-MT01 vector containing a SV40 promoter upstream of the hLuc gene, and a CMV reporter upstream of the hRLuc gene, were sourced from Genecopoeia™ (Rockville, USA). […]
HeLa cells were seeded in 12-well plates and co-transfected using Lipofectamine 2000 (Invitrogen) with 100 ng of either the negative control (empty), DOHH 3′-UTR or ERBB-2 3′-UTR reporter construct (Genecopoeia™) and 1-2 nM final concentration of pre-miR-331-3p, pre-miR-642-5p, a combination of pre-miR-331-3p and pre-miR-642-5p, or pre-miR-NC per well. Lysates were assayed for Firefly and Renilla luciferase activities 24 h after transfection using the Dual Luciferase Reporter Assay System (Promega) and a Fluostar OPTIMA microplate reader (BMG Labtech), and firefly luciferase activities normalised to Renilla luciferase activities to obtain relative reporter gene activity.

Another data set deals with eIF5A. Briefly: Immunoblot of cytoplasmic eIF5A in transfected HeLa cells. As to conditions: HeLa cells transiently over expressing miRNA, total anti-eIF5A antibody, data not shown. The source says:
Endogenous DOHH mRNA was repressed by both hsa-miR-331-3p and hsa-miR-642-5p in HeLa cells (FIG. 3A).

For data set [1], the system named is 182 nucleotide element of the DOHH 3′-UTR. Description: Reporter gene assay in LNCaP and C4-2B prostate cancer cells with 3′UTR, 3′UTR ELEMENT and 3′UTR MINUS ELEMENT constructs. As to conditions: for Down-regulation of reporter activity from “3′UTR MINUS ELEMENT” construct: LNCaP and C4-2B cells, 182 nucleotide element deleted; for Reporter activity from “3′UTR” and “3′UTR ELEMENT” constructs: both LNCaP and C4-2B cells, relative to miR-NC. The protocol: Briefly, three reporter gene constructs were prepared using a pmiR-REPORT vector (Ambion) as the backbone. The first construct was the construct described in Example 2, containing the DOHH 3′-UTR downstream of the firefly luciferase reporter gene (labelled “3′UTR”). The second construct contained a DOHH 3′-UTR in which the 182 base pair element had been deleted, downstream of the firefly luciferase reporter gene (labelled “3′UTR MINUS ELEMENT”). The third construct contained the 182 nucleotide element downstream of the firefly luciferase reporter gene (labelled “3′UTR ELEMENT”) (FIG. 6A).
The effect of hsa-miR-331-3p and/or hsa-miR-642-5p on expression from the “3′UTR”, “3′UTR ELEMENT” and “3′UTR MINUS ELEMENT” construct in LNCaP and C4-2B prostate cancer cells was then assessed using the same transfection and assay techniques.

Another data set deals with DOHH mRNA. Briefly: qRT-PCR of endogenous DOHH mRNA in transfected DU145 cells. The settings on record: 24 h after transfection, versus miR-NC. On the procedure: (§1) The effect of hsa-miR-331-3p and/or hsa-miR-642-5p on endogenous DOHH expression in DU145 prostate cancer cells was assessed by co-transfecting the cells with pre-miR-331-3p, pre-miR-642-5p, or pre-miR-NC essentially as described in Examples 2 and 3, and DOHH mRNA levels were assessed by qRT-PCR of DOHH mRNA. Parallel Western blotting experiments were performed to assess DOHH protein levels, as also described above.

In a further data set the test system is DOHH protein. Briefly: Western blot of DOHH protein in transfected DU145 cells. As to conditions: 48 h after transfection. The protocol: as §1
The test system of data set [2] is DOHH 3′-UTR 182 nucleotide element. Briefly: Luciferase RNA level from 3′UTR ELEMENT construct in DU145 cells. The settings on record: co-transfection, data not shown. The text has this: DU145 cells were also co-transfected with the “3′UTR ELEMENT” construct (i.e. the luciferase reporter carrying the DOHH 3′-UTR 182 nucleotide element) and hsa-miR-331-3p and/or hsa-miR-642-5p.

The next data set concerns DU145 cells. Briefly: CellTiter 96 Aqueous One cell proliferation assay in DU145 cells with or without mimosine. As to conditions: 5 days post transfection, compared with miR-NC, no mimosine. The source says:
The functional significance of hsa-miR-331-3p and/or hsa-miR-642-5p overexpression in DU145 cells was then investigated. DU145 cells were transfected with pre-miR-331-3p, pre-miR-642-5p, or pre-miR-NC as described above. […] Using the Bliss model (Bliss (1939) Ann Appl. Biol 26:585-615), synergy occurs when the observed fractional inhibition for the combination of hsa-miR-331-3p and/or hsa-miR-642-5p and mimosine (defined as Eobserved) exceeds the sum of the combined miRNA effect and the mimosine effect (defined as EBliss) (Table 3).

In the case of “hsa-miR-331-3p: human miR-331-3p, 5′-GCCCCUGGGCCUAUCCUAGAA-3′ (SEQ ID NO:4); transfected as Ambion Pre-miR precursor PM10881 (listed as RNA, chemistry not given here; listed as Homo sapiens)”, in the data set with DOHH 3′-UTR, the “DOHH 3′-UTR reporter activity (firefly normalised to Renilla luciferase)” value is “significant reduction in reporter activity”. In addition, in the data set on eIF5A, the “Cytoplasmic levels of eIF5A” value was “unchanged cytoplasmic levels of eIF5A”. For the same substance, in data set [1], the “Down-regulation of reporter activity from “3′UTR MINUS ELEMENT” construct” value is “not observed”; the “Reporter activity from “3′UTR” and “3′UTR ELEMENT” constructs” value is “significantly down-regulated reporter activity”. In addition, the “Endogenous DOHH mRNA expression” value in the data set on DOHH mRNA is reported as “significantly reduced expression of endogenous DOHH mRNA”. Moreover, in the data set with DOHH protein, the “DOHH protein expression (Western blot)” value was “inhibited expression of DOHH protein”. In data set [2], the “Luciferase RNA levels from “3′UTR ELEMENT” construct” value is on record as “Reduced luciferase RNA levels”. In addition, the DU145 cell proliferation result with DU145 cells is reported as “significantly reduced DU145 cell proliferation”.
On to “hsa-miR-642-5p: human miR-642-5p, 5′-GUCCCUCUCCAAAUGUGUCUUG-3′ (SEQ ID NO:5); transfected as Ambion Pre-miR precursor PM11477 (listed as RNA, chemistry not given here; listed as Homo sapiens)”, for which the “DOHH 3′-UTR reporter activity (firefly normalised to Renilla luciferase)” value with DOHH 3′-UTR is given as “increased effect on the DOHH 3′UTR compared to the effect of hsa-miR-331-3p”. In the data set on eIF5A, the “Cytoplasmic levels of eIF5A” value is recorded as “unchanged cytoplasmic levels of eIF5A”. In data set [1], the “Down-regulation of reporter activity from “3′UTR MINUS ELEMENT” construct” value is given as “not observed”; the “Reporter activity from “3′UTR” and “3′UTR ELEMENT” constructs” value is given as “significantly down-regulated reporter activity”. For the same substance, the “Endogenous DOHH mRNA expression” value with DOHH mRNA is reported as “significantly reduced expression of endogenous DOHH mRNA”. Moreover, the “DOHH protein expression (Western blot)” value with DOHH protein is “inhibited expression of DOHH protein”. For the same substance, in data set [2], the “Luciferase RNA levels from “3′UTR ELEMENT” construct” value was “Reduced luciferase RNA levels”. Also, in the data set with DU145 cells, the DU145 cell proliferation entry is “significantly reduced DU145 cell proliferation”.
